Source: patent US20220363686A1 (AiCuris GmbH & Co. KG, priority 2018, published 2022)

Legend:
[1] = Cell viability assay (AlamarBlue); conditions: human, HepAD38 cells
[2] = system: HBV; experiment: Determination of HBV DNA from the supernatants of HepAD38 cells (anti-HBV activity); type: cell-based, hepatitis B virus; conditions: Hepatitis B virus, HePAD38, 144 h, HBV DNA in HepAD38 supernatant, day 6, qPCR; read-out: Cell Activity
Outline: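 HepAD38 cells (60,000/well) seeded in tetracycline-free medium to induce HBV, treated with half-log serial compound dilutions for 6 days at 37 °C. HBV DNA purified from filtered supernatant and quantified by real-time PCR against HBV plasmid standards; EC50 from relative copy numbers by non-linear regression.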

[3] = target: HBV core protein (C-terminal truncated core protein containing 149 amino acids of the N-terminal assembly domain) (UniProt P03146); experiment: Biochemical capsid assembly assay (fluorescence quenching); set-up: rows headed: Assembly Activity; other: BODIPY-FL labelled core protein, assembly started with NaCl, read after 6 min; conditions: read-out: Assembly Activity; BODIPY-FL labelled core protein, assembly started with NaCl, read after 6 min
Outline: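 N-terminal assembly domain (residues 1–149) plus C-terminal Cys150, E. coli-expressed, BODIPY-FL-maleimide labelled, used at 1.0–2.0 μM in 50 mM HEPES pH 7.5 with 0.5% DMSO. Assembly started with NaCl ([…]); fluorescence quenching (ex 477/em 525 nm) read after 6 min. 8-point compound series; EC50 by non-linear regression.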

Sequence of HBV core protein (C-terminal truncated core protein containing 149 amino acids of the N-terminal assembly domain) (P03146 whole entry, the tested form may be a part): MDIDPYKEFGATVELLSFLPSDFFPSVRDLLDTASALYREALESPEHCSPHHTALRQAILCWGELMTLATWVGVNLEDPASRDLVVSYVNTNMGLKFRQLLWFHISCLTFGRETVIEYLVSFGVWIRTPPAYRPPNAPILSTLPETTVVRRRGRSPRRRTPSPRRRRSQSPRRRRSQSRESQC

Row | Compound | CC50 at 6 days [1] [µM] | EC50 [2] [µM] | IC50 [3] [µM]
1 | Cc1cc(F)cc2[nH]c(C(=O)N3CCn4ncc(C(=O)N(C)C5(CO)CC5)c4C3)cc12 [Example 83, 5-(6-fluoro-4-methyl-1H-indole-2-carbonyl)-N-[1-(hydroxymethyl)cyclopropyl]-N-methyl-4H,5H,6H,7H-pyrazolo[1,5-a]pyrazine-3-carboxamide] | > 10 | < 1 | < 5
2 | O=C(c1cc2ccccc2[nH]1)N1CCn2ncc(C(=O)N3CCC4CC43)c2C1 (stereo not drawn) [Example 48, 2-(3-{2-azabicyclo[3.1.0]hexane-2-carbonyl}-4H,5H,6H,7H-pyrazolo[1,5-a]pyrazine-5-carbonyl)-1H-indole] | > 10 | 1 to 10 | < 5
3 | CN(C(=O)c1cnn2c1CN(C(=O)c1cc3ccccc3[nH]1)CC2)C1CCC1 [Example 133, N-cyclobutyl-5-(1H-indole-2-carbonyl)-N-methyl-4H,5H,6H,7H-pyrazolo[1,5-a]pyrazine-3-carboxamide] | > 10 | 1 to 10 | < 5
4 | CN(C(=O)c1cnn2c1CN(C(=O)c1cc3c(Cl)cc(F)cc3[nH]1)CC2)C1(COC(F)F)CC1 [Example 25, 5-(4-chloro-6-fluoro-1H-indole-2-carbonyl)-N-{1-[(difluoromethoxy)methyl]cyclopropyl}-N-methyl-4H,5H,6H,7H-pyrazolo[1,5-a]pyrazine-3-carboxamide] | > 10 | < 1 | < 5
5 | CC1Cn2ncc(C(=O)N[C@H](C)C(F)(F)F)c2CN1C(=O)c1cc2c(Cl)cccc2[nH]1 (stereo partly drawn) [Example 145, 5-(4-chloro-1H-indole-2-carbonyl)-6-methyl-N-[(2R)-1,1,1-trifluoropropan-2-yl]-4H,5H,6H,7H-pyrazolo[1,5-a]pyrazine-3-carboxamide] | > 10 | < 1 | < 5
6 | CC1Cn2ncc(C(=O)N[C@H](C)C(F)(F)F)c2CN1C(=O)c1cc2ccccc2[nH]1 (stereo partly drawn) [Example 142, 5-(1H-indole-2-carbonyl)-6-methyl-N-[(2R)-1,1,1-trifluoropropan-2-yl]-4H,5H,6H,7H-pyrazolo[1,5-a]pyrazine-3-carboxamide] | > 10 | < 1 | < 5
7 | O=C(NC1(C(F)(F)F)CC1)c1cnn2c1CN(C(=O)c1cc3ccccc3[nH]1)CC2 [Example 101, 5-(1H-indole-2-carbonyl)-N-[1-(trifluoromethyl)cyclopropyl]-4H,5H,6H,7H-pyrazolo[1,5-a]pyrazine-3-carboxamide] | > 10 | < 1 | < 5
8 | CCc1cccc2[nH]c(C(=O)N3CCn4ncc(C(=O)N(C)C5(CO)CC5)c4C3)cc12 [Example 95, 5-(4-ethyl-1H-indole-2-carbonyl)-N-[1-(hydroxymethyl)cyclopropyl]-N-methyl-4H,5H,6H,7H-pyrazolo[1,5-a]pyrazine-3-carboxamide] | > 10 | < 1 | < 5
9 | CC(C)(C)NC(=O)c1cnn2c1CN(C(=O)c1cc3ccccc3[nH]1)CC2 [Example 87, N-tert-butyl-5-(1H-indole-2-carbonyl)-4H,5H,6H,7H-pyrazolo[1,5-a]pyrazine-3-carboxamide] | > 10 | < 1 | < 5
10 | CN(C(=O)c1cnn2c1CN(C(=O)c1cc3ccccc3[nH]1)CC2)C1(CCOC(F)F)CCCC1 [Example 127, N-{1-[2-(difluoromethoxy)ethyl]cyclopentyl}-5-(1H-indole-2-carbonyl)-N-methyl-4H,5H,6H,7H-pyrazolo[1,5-a]pyrazine-3-carboxamide] | > 10 | 1 to 10 | < 5
11 | O=C(c1cc2ccccc2[nH]1)N1CCn2ncc(S(=O)(=O)NCCO)c2C1 [Example 29, N-(2-hydroxyethyl)-5-(1H-indole-2-carbonyl)-4H,5H,6H,7H-pyrazolo[1,5-a]pyrazine-3-sulfonamide] | > 10 | < 1 | < 5
12 | CC1Cn2ncc(C(=O)N[C@H](C)C(F)(F)F)c2CN1C(=O)c1cc2c(F)c(F)ccc2[nH]1 (stereo partly drawn) [Example 143, 5-(4,5-difluoro-1H-indole-2-carbonyl)-6-methyl-N-[(2R)-1,1,1-trifluoropropan-2-yl]-4H,5H,6H,7H-pyrazolo[1,5-a]pyrazine-3-carboxamide] | > 10 | < 1 | < 5
13 | CN(CC1(O)CCC1)C(=O)c1cnn2c1CN(C(=O)c1cc3ccccc3[nH]1)CC2 [Example 137, N-[(1-hydroxycyclobutyl)methyl]-5-(1H-indole-2-carbonyl)-N-methyl-4H,5H,6H,7H-pyrazolo[1,5-a]pyrazine-3-carboxamide] | > 10 | < 1 | < 5
14 | CN(C(=O)c1cnn2c1CN(C(=O)c1cc3ccccc3[nH]1)CC2)C1(COCCCO)CC1 [Example 65, N-{1-[(3-hydroxypropoxy)methyl]cyclopropyl}-5-(1H-indole-2-carbonyl)-N-methyl-4H,5H,6H,7H-pyrazolo[1,5-a]pyrazine-3-carboxamide] | > 10 | < 1 | < 5
15 | CCc1cc(F)cc2[nH]c(C(=O)N3CCn4ncc(C(=O)N(C)C5(COC(F)F)CC5)c4C3)cc12 [Example 22, N-{1-[(difluoromethoxy)methyl]cyclopropyl}-5-(4-ethyl-6-fluoro-1H-indole-2-carbonyl)-N-methyl-4H,5H,6H,7H-pyrazolo[1,5-a]pyrazine-3-carboxamide] | > 10 | < 1 | < 5
16 | Cc1c(F)ccc2[nH]c(C(=O)N3CCn4ncc(C(=O)N5CCCOCC56CC6)c4C3)cc12 [Example 108, 4-[5-(5-fluoro-4-methyl-1H-indole-2-carbonyl)-4H,5H,6H,7H-pyrazolo[1,5-a]pyrazine-3-carbonyl]-8-oxa-4-azaspiro[2.6]nonane] | > 10 | < 1 | < 5
17 | COCC1(N(C)C(=O)c2cnn3c2CN(C(=O)c2cc4ccccc4[nH]2)C(C)C3)CC1 (stereo not drawn) [Example 1, 5-(1H-indole-2-carbonyl)-N-[1-(methoxymethyl)cyclopropyl]-N,6-dimethyl-4H,5H,6H,7H-pyrazolo[1,5-a]pyrazine-3-carboxamide] | > 10 | < 1 | < 5
18 | CN(C(=O)c1cnn2c1CN(C(=O)c1cc3ccccc3[nH]1)CC2)C1(COCCO)CC1 [Example 64, N-{1-[(2-hydroxyethoxy)methyl]cyclopropyl}-5-(1H-indole-2-carbonyl)-N-methyl-4H,5H,6H,7H-pyrazolo[1,5-a]pyrazine-3-carboxamide] | > 10 | < 1 | < 5
19 | O=C(c1cc2ccccc2[nH]1)N1CCn2ncc(C(=O)N(C3CC3)C3CC3)c2C1 [Example 60, N,N-dicyclopropyl-5-(1H-indole-2-carbonyl)-4H,5H,6H,7H-pyrazolo[1,5-a]pyrazine-3-carboxamide] | > 10 | < 1 | < 5
20 | CN(C(=O)c1cnn2c1CN(C(=O)c1cc3ccccc3[nH]1)CC2)C1(COC(F)F)CC1 [Example 16, N-{1-[(difluoromethoxy)methyl]cyclopropyl}-5-(1H-indole-2-carbonyl)-N-methyl-4H,5H,6H,7H-pyrazolo[1,5-a]pyrazine-3-carboxamide] | > 10 | < 1 | < 5
21 | CC1Cn2ncc(C(=O)N[C@H](C)C(F)(F)F)c2CN1C(=O)c1cc2cc(F)c(Cl)cc2[nH]1 (stereo partly drawn) [Example 147, 5-(6-chloro-5-fluoro-1H-indole-2-carbonyl)-6-methyl-N-[(2R)-1,1,1-trifluoropropan-2-yl]-4H,5H,6H,7H-pyrazolo[1,5-a]pyrazine-3-carboxamide] | > 10 | < 1 | < 5
22 | COCC1(NC(=O)c2cnn3c2CN(C(=O)c2cc4ccccc4[nH]2)CC3)CC1 [Example 50, 5-(1H-indole-2-carbonyl)-N-[1-(methoxymethyl)cyclopropyl]-4H,5H,6H,7H-pyrazolo[1,5-a]pyrazine-3-carboxamide] | > 10 | < 1 | < 5
23 | O=C(c1cc2ccccc2[nH]1)N1CCn2ncc(N3CCC4(CC4)C3=O)c2C1 [Example 76, 5-[5-(1H-indole-2-carbonyl)-4H,5H,6H,7H-pyrazolo[1,5-a]pyrazin-3-yl]-5-azaspiro[2.4]heptan-4-one] | > 10 | 1 to 10 | 5 to 10
24 | Cc1c(F)ccc2[nH]c(C(=O)N3Cc4c(C(=O)N[C@H](C)C(F)(F)F)cnn4CC3C)cc12 (stereo partly drawn) [Example 144, 5-(5-fluoro-4-methyl-1H-indole-2-carbonyl)-6-methyl-N-[(2R)-1,1,1-trifluoropropan-2-yl]-4H,5H,6H,7H-pyrazolo[1,5-a]pyrazine-3-carboxamide] | > 10 | < 1 | < 5
